Assay [1] has as its target T1, G12D-mutant human KRAS (amino acid residues 1-188) (Homo sapiens, UniProt P01116, G12D).
T1 construct: G12D or G12C-mutant human KRAS (amino acid residues 1-188) with FLAG tag; made in house; host or cells: E. coli
In words: KRAS Binding Disruption Assay (AlphaScreen; biotinylated KRpep-2d analogue or RAF1-RBD), G12D. Particulars: KRAS G12D; geometric mean; read-out: KRAS GMean IC50 (uM) MUTATION: G12D. The method in brief: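 Mutant KRAS (5-20 nM) incubated 1 h at 25° C with test compound and 5-20 nM biotinylated KRpep-2d analogue or RAF1-RBD in 20 mM HEPES pH 7.5, 100 mM NaCl, 5 mM MgCl2, 0.01% Tween-20, 0.01% BSA.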
On the technique in general: Alpha assays give light when donor and acceptor beads are brought close together.

Assay [2] has as its target T2, G12V-mutant human KRAS (amino acid residues 1-188) (Homo sapiens, UniProt P01116, G12V).
T2 construct: G12V-mutant human KRAS (amino acid residues 1-188) with FLAG tag was purified from E. coli; made in house; host or cells: E. coli
In words: KRAS Binding Competition Assay (AlphaScreen; biotinylated KRpep-2d analogue), G12V. Particulars: geometric mean, read-out: KRAS GMean IC50 (uM) MUTATION: G12V.

Molecules are shown by their SMILES.

In general, IC50 refers to the concentration needed to halve the response being measured.

For the compound `CN1CCC[C@H]1COc1nc(N2C[C@H]3CC[C@@H](C2)N3)c2ccc(-c3nc(N)cc4ccccc34)c(F)c2n1` [P-0378, 1-(4-((1R,5S)-3,8-diazabicyclo[3.2.1]octan-3-yl)-8-fluoro-2-(((S)-1-methylpyrrolidin-2-yl)methoxy)quinazolin-7-yl)isoquinolin-3-amine], the IC50 in assay [1] lay within 0.0001 to 10 µM; in assay [2], 10 to 100 µM.
For the compound `CN1CCC[C@H]1COc1nc(N2C[C@H]3CC[C@@H](C2)N3)c2ccc(-c3nc(N)cc4cccnc34)c(F)c2n1` [P-0379, 8-(4-((1R,5S)-3,8-diazabicyclo[3.2.1]octan-3-yl)-8-fluoro-2-(((S)-1-methylpyrrolidin-2-yl)methoxy)quinazolin-7-yl)-1,7-naphthyridin-6-amine], the IC50 in assay [1] fell in the range of 10 to 100 µM; in assay [2], 100 to 1000 µM.
The corresponding values for `CN(C)CCCS(=O)(=O)N1[C@@H]2CC[C@H]1CN(c1nc(OC[C@@H]3CCCN3C)nc3c(F)c(-c4cc(O)cc5ccccc45)ccc13)C2` [P-0380, 4-(4-((1R,5S)-8-((3-(dimethylamino)propyl)sulfonyl)-3,8-diazabicyclo[3.2.1]octan-3-yl)-8-fluoro-2-(((S)-1-methylpyrrolidin-2-yl)methoxy)quinazolin-7-yl)naphthalen-2-ol] are 0.0001 to 10 µM and 10 to 100 µM.
The corresponding values for `Oc1cc(-c2ccc3c(N4C[C@H]5CC[C@@H](C4)N5)nc(N4CC5CCC(C4)N5)nc3c2F)c2ccccc2c1` [P-0381, 4-(4-((1R,5S)-3,8-diazabicyclo[3.2.1]octan-3-yl)-2-(3,8-diazabicyclo[3.2.1]octan-3-yl)-8-fluoroquinazolin-7-yl)naphthalen-2-ol] are 0.0001 to 10 µM and 100 to 1000 µM.
Take `CN1CCC[C@H]1COc1nc(N2C[C@H]3CC[C@@H](C2)N3C(=O)CCn2ccnc2)c2ccc(-c3cc(O)cc4ccccc34)cc2n1` [P-0382, 1-((1R,5S)-3-(7-(3-hydroxynaphthalen-1-yl)-2-(((S)-1-methylpyrrolidin-2-yl)methoxy)quinazolin-4-yl)-3,8-diazabicyclo[3.2.1]octan-8-yl)-3-(1H-imidazol-1-yl)propan-1-one]: the IC50 in assay [1] and in assay [2] was 0.0001 to 10 µM in each case.
Regarding `CN1CCC[C@H]1COc1nc(N2C[C@H]3CC[C@@H](C2)N3C(=O)CCC#N)c2ccc(-c3cc(O)cc4ccccc34)cc2n1` [P-0383, 4-((1R,5S)-3-(7-(3-hydroxynaphthalen-1-yl)-2-(((S)-1-methylpyrrolidin-2-yl)methoxy)quinazolin-4-yl)-3,8-diazabicyclo[3.2.1]octan-8-yl)-4-oxobutanenitrile], the results for the IC50 in assay [1] and in assay [2] were 10 to 100 µM and 0.0001 to 10 µM, respectively.
Taken in the same sequence, the figures for `CN1CCC[C@H]1COc1nc(N2C[C@H]3CC[C@@H](C2)N3)c2ccc(-c3cc(O)c(F)c4ccccc34)cc2n1` [P-0385, 4-(4-((1R,5S)-3,8-diazabicyclo[3.2.1]octan-3-yl)-2-(((S)-1-methylpyrrolidin-2-yl)methoxy)quinazolin-7-yl)-1-fluoronaphthalen-2-ol] were 0.0001 to 10 µM and 10 to 100 µM.
For the compound `CN1C(=O)C(CC(=O)N2[C@@H]3CC[C@H]2CN(c2nc(OCC45CCCN4CCC5)nc4c(F)c(-c5cc(O)cc6ccccc56)ccc24)C3)N(C)C1=O` (stereo partly drawn) [P-0386, 5-(2-((1R,5S)-3-(8-fluoro-7-(3-hydroxynaphthalen-1-yl)-2-((tetrahydro-1H-pyrrolizin-7a(5H)-yl)methoxy)quinazolin-4-yl)-3,8-diazabicyclo[3.2.1]octan-8-yl)-2-oxoethyl)-1,3-dimethylimidazolidine-2,4-dione], the IC50 in assay [1] and in assay [2] was 0.0001 to 10 µM throughout.
Regarding `Cc1[nH][nH]c(=O)c1CC(=O)N1[C@@H]2CC[C@H]1CN(c1nc(OCC34CCCN3CCC4)nc3c(F)c(-c4cc(O)cc5ccccc45)ccc13)C2` [P-0388, 4-(2-((1R,5S)-3-(8-fluoro-7-(3-hydroxynaphthalen-1-yl)-2-((tetrahydro-1H-pyrrolizin-7a(5H)-yl)methoxy)quinazolin-4-yl)-3,8-diazabicyclo[3.2.1]octan-8-yl)-2-oxoethyl)-5-methyl-1,2-dihydro-3H-pyrazol-3-one], the IC50 in assay [1] and in assay [2] was 0.0001 to 10 µM in each case.
`O=[N+]([O-])c1ccc(COc2nc(N3C[C@H]4CC[C@@H](C3)N4)c3cc(Cl)c(-c4c(O)cccc4F)c(F)c3n2)cc1` [P-0389, 2-(4-((1R,5S)-3,8-diazabicyclo[3.2.1]octan-3-yl)-6-chloro-8-fluoro-2-((4-nitrobenzyl)oxy)quinazolin-7-yl)-3-fluorophenol]: the IC50 lay within 0.0001 to 10 µM in assay [1] and 10 to 100 µM in assay [2].
The corresponding values for `CN(C)c1cccc(Oc2nc(N3C[C@H]4CC[C@@H](C3)N4)c3cc(Cl)c(-c4c(O)cccc4F)c(F)c3n2)c1` [P-0390, 2-(4-((1R,5S)-3,8-diazabicyclo[3.2.1]octan-3-yl)-6-chloro-2-(3-(dimethylamino)phenoxy)-8-fluoroquinazolin-7-yl)-3-fluorophenol] are 0.0001 to 10 µM and 0.0001 to 10 µM.
The corresponding values for `CN(C)c1ccc(Nc2nc(N3C[C@H]4CC[C@@H](C3)N4)c3cc(Cl)c(-c4c(O)cccc4F)c(F)c3n2)cc1` [P-0391, 2-(4-((1R,5S)-3,8-diazabicyclo[3.2.1]octan-3-yl)-6-chloro-2-((4-(dimethylamino)phenyl)amino)-8-fluoroquinazolin-7-yl)-3-fluorophenol] are 0.0001 to 10 µM and 0.0001 to 10 µM.
For the compound `Oc1cccc(F)c1-c1c(Cl)cc2c(N3C[C@H]4CC[C@@H](C3)N4)nc(OCC34CCCN3CCC4)nc2c1F` [P-0392, 2-(4-((1R,5S)-3,8-diazabicyclo[3.2.1]octan-3-yl)-6-chloro-8-fluoro-2-((tetrahydro-1H-pyrrolizin-7a(5H)-yl)methoxy)quinazolin-7-yl)-3-fluorophenol], the IC50 in assay [1] was 0.0001 to 10 µM; in assay [2], 10 to 100 µM.
As to `CN1CCC[C@H]1COc1nc(N2C[C@H]3CC[C@@H](C2)N3C(=O)CCCn2ccnc2)c2ccc(-c3cc(O)cc4ccccc34)c(F)c2n1` [P-0393, 1-((1R,5S)-3-(8-fluoro-7-(3-hydroxynaphthalen-1-yl)-2-(((S)-1-methylpyrrolidin-2-yl)methoxy)quinazolin-4-yl)-3,8-diazabicyclo[3.2.1]octan-8-yl)-4-(1H-imidazol-1-yl)butan-1-one], the IC50 in assay [1] and in assay [2] was 0.0001 to 10 µM in each case.
Turning to `C[C@H](O)C(=O)N1[C@@H]2CC[C@H]1CN(c1nc(OC[C@@H]3CCCN3C)nc3c(F)c(-c4cc(O)cc5ccccc45)ccc13)C2` [P-0394, (S)-1-((1R,5S)-3-(8-fluoro-7-(3-hydroxynaphthalen-1-yl)-2-(((S)-1-methylpyrrolidin-2-yl)methoxy)quinazolin-4-yl)-3,8-diazabicyclo[3.2.1]octan-8-yl)-2-hydroxypropan-1-one], the IC50 in assay [1] and in assay [2] was 0.0001 to 10 µM throughout.
As to `C[C@@H](O)C(=O)N1[C@@H]2CC[C@H]1CN(c1nc(OC[C@@H]3CCCN3C)nc3c(F)c(-c4cc(O)cc5ccccc45)ccc13)C2` [P-0395, (R)-1-((1R,5S)-3-(8-fluoro-7-(3-hydroxynaphthalen-1-yl)-2-(((S)-1-methylpyrrolidin-2-yl)methoxy)quinazolin-4-yl)-3,8-diazabicyclo[3.2.1]octan-8-yl)-2-hydroxypropan-1-one], the 50% inhibitory concentration (IC50) in assay [1] and in assay [2] was 0.0001 to 10 µM throughout.
`CN1CCC[C@H]1COc1nc(N2C[C@H]3CC[C@@H](C2)N3C(=O)C2CCC(=O)N2)c2ccc(-c3cc(O)cc4ccccc34)c(F)c2n1` (stereo partly drawn) [P-0396, 5-((1R,5S)-3-(8-fluoro-7-(3-hydroxynaphthalen-1-yl)-2-(((S)-1-methylpyrrolidin-2-yl)methoxy)quinazolin-4-yl)-3,8-diazabicyclo[3.2.1]octane-8-carbonyl)pyrrolidin-2-one]: the IC50 in assay [1] and in assay [2] was 0.0001 to 10 µM each time.
For the compound `CN1CCC[C@H]1COc1nc(N2C[C@H]3CC[C@@H](C2)N3C(=O)CC(N)=O)c2ccc(-c3cc(O)cc4ccccc34)c(F)c2n1` [P-0398, 3-((1R,5S)-3-(8-fluoro-7-(3-hydroxynaphthalen-1-yl)-2-(((S)-1-methylpyrrolidin-2-yl)methoxy)quinazolin-4-yl)-3,8-diazabicyclo[3.2.1]octan-8-yl)-3-oxopropanamide], the IC50 in assay [1] and in assay [2] was 0.0001 to 10 µM each time.
As to `CN1CCC[C@H]1COc1nc(N2C[C@H]3CC[C@@H](C2)N3C(=O)CCC(N)=O)c2ccc(-c3cc(O)cc4ccccc34)c(F)c2n1` [P-0399, 4-((1R,5S)-3-(8-fluoro-7-(3-hydroxynaphthalen-1-yl)-2-(((S)-1-methylpyrrolidin-2-yl)methoxy)quinazolin-4-yl)-3,8-diazabicyclo[3.2.1]octan-8-yl)-4-oxobutanamide], the IC50 in assay [1] and in assay [2] was 0.0001 to 10 µM each time.
In the case of `CN1CCC[C@H]1COc1nc(N2C[C@H]3CC[C@@H](C2)N3C(=O)C(=O)Nc2ccccn2)c2ccc(-c3cc(O)cc4ccccc34)c(F)c2n1` [P-0400, 2-((1R,5S)-3-(8-fluoro-7-(3-hydroxynaphthalen-1-yl)-2-(((S)-1-methylpyrrolidin-2-yl)methoxy)quinazolin-4-yl)-3,8-diazabicyclo[3.2.1]octan-8-yl)-2-oxo-N-(pyridin-2-yl)acetamide], the IC50 in assay [1] and in assay [2] was 0.0001 to 10 µM in each case.
For `CN1CCC[C@H]1COc1nc(N2C[C@H]3CC[C@@H](C2)N3C(=O)Cn2ccnc2)c2ccc(-c3cc(O)cc4ccccc34)c(F)c2n1` [P-0401, 1-((1R,5S)-3-(8-fluoro-7-(3-hydroxynaphthalen-1-yl)-2-(((S)-1-methylpyrrolidin-2-yl)methoxy)quinazolin-4-yl)-3,8-diazabicyclo[3.2.1]octan-8-yl)-2-(1H-imidazol-1-yl)ethan-1-one], the IC50 in assay [1] and in assay [2] was 0.0001 to 10 µM in each case.

The values are drawn from patent US20230081426A1, “COMPOUNDS AND METHODS FOR KRAS MODULATION AND INDICATIONS THEREFOR” (Plexxikon Inc., priority 2020, published 2023).
